These results are taken from article PMC11994961, “In Vivo pharmacokinetic interactions of ribociclib with rivaroxaban and apixaban in rats: implications for increased drug exposure and dose adjustments” (Frontiers in Pharmacology, 2025).

Experiment in all cases: qRT-PCR mRNA expression in rat intestine after ribociclib
Holding throughout (assay type): in vivo
Settings in all cases: rats, ribociclib continuously for 8 days

The subject of series [1] is Abcb1a (P-gp) mRNA in the intestines. From the text: (§1) qRT-PCR analysis was used to determine the mRNA levels of Cyp3a1(CYP3A4) in the liver and Abcb1a (P-gp), Cyp3a1(CYP3A4), Abcg2(BCRP) in the intestines. Total RNA was extracted from frozen liver and intestine samples using the TRNzol Universal reagent, following the manufacturer’s instructions. The Bio Tek Epoch (Bio Tek Instruments, Inc., Winooski, VT, United States) was used to quantify the purity and concentration of the total RNA, based on the ratio of the absorbance at 260 and 280 nm. The RNA samples, each containing 1 µg of material, were converted to complementary DNA (cDNA) using the FastKing RT Kit. The real-time PCR assays were performed using a two-step amplification protocol on the SLAN-96S Real-Time PCR system (Shanghai Hongshi Medical Technology Co., Ltd., Shanghai, China). […] was employed as an internal control, and the PCR cycling criteria were as follows: 95°C for 15 min, followed by 40 cycles of 95°C for 10 s and 60°C for 32 s.

The test system of series [2] is Abcg2(BCRP) mRNA in the intestines.
Description: as §1

For series [3], the system named is Cyp3a1(CYP3A4) mRNA in the intestines.
Description: as §1

Take `CN(C)C(=O)c1cc2cnc(Nc3ccc(N4CCNCC4)cn3)nc2n1C1CCCC1` [RIBO, ribociclib]: the “mRNA expression of Abcb1a in the intestine” value in series [1] is on record as “no significant changes”. Further, the “inhibition rate of intestinal Abcg2 mRNA expression” value in series [2] is on record as 45.0%. Further, the “inhibition rate of intestinal Cyp3a1 mRNA expression” value in series [3] was found to be 82.6%.
